Experimental data taken from ChEMBL document CHEMBL1147273, “3-Dimethylallylindole: an antibacterial and antifungal metabolite from Monodora tenuifolia” (1986).
In brackets after ≈: the same amount, converted by molar mass. Activity calls are given as the source filed them. The calls are words filed in the database; no cut-off is given here.

Legend:
Staphylococcus aureus = test: Antimicrobial activity against Staphylococcus aureus ATCC 6538 by towfold serial dilution method; format: functional
Trametes sanguinea = test: Antimicrobial activity against Pycnoporus sanguineus ATCC 14622 by towfold serial dilution method; format: functional
[1] = test system: Trichophyton mentagrophytes; test: Antimicrobial activity against Trichophyton mentagrophytes ATCC 9172 by towfold serial dilution method; format: functional
Helminthosporium = test: Antimicrobial activity against Helminthosporium sp. NRRL 4671 by towfold serial dilution method; format: functional
Candida albicans [2] = test: Antimicrobial activity against Candida albicans ATCC 10231 by towfold serial dilution method; format: functional
Candida albicans [3] = test: Antimicrobial activity against Candida albicans NIH B311 by towfold serial dilution method; format: functional
Saccharomyces cerevisiae = test: Antimicrobial activity against Saccharomyces cerevisiae ATCC 9763 by towfold serial dilution method; format: functional
Candida albicans [4] = test: Antimicrobial activity against Candida albicans WH by towfold serial dilution method; format: functional
Bacillus subtilis = test: Antimicrobial activity against Bacillus subtilis ATCC 6633 by towfold serial dilution method; format: functional
Cryptococcus neoformans = test: Antimicrobial activity against Cryptococcus neoformans ATCC 32264 by towfold serial dilution method; format: functional
Escherichia coli = test: Antimicrobial activity against Escherichia coli ATCC 10536 by towfold serial dilution method; format: functional, organism-based
Pseudomonas aeruginosa = test: Antimicrobial activity against Pseudomonas aeruginosa ATCC 15442 by towfold serial dilution method; format: functional, organism-based
Aspergillus niger = test: Antimicrobial activity against Aspergillus niger ATCC 16888 by towfold serial dilution method; format: functional, organism-based
[5] = test system: Mycolicibacterium smegmatis; test: Antimicrobial activity against Mycobacterium smegmatis ATCC 607 by towfold serial dilution method; format: functional

`CC(C)=CCc1c[nH]c2ccccc12` was tested, and the MIC (Staphylococcus aureus) was 12.5 µg/mL (≈ 67.5 µM), the MIC (Trametes sanguinea) was 12.5 µg/mL (≈ 67.5 µM) and the MIC [1] was 1.56 µg/mL (≈ 8.42 µM). The MIC (Helminthosporium) was 0.78 µg/mL (≈ 4.21 µM), the MIC (Candida albicans [2]) was 25 µg/mL (≈ 135 µM) and the MIC (Candida albicans [3]) was 25 µg/mL (≈ 135 µM). For the same compound, the MIC (Saccharomyces cerevisiae) was 12.5 µg/mL (≈ 67.5 µM), the MIC (Candida albicans [4]) was 25 µg/mL (≈ 135 µM) and the MIC (Bacillus subtilis) was 12.5 µg/mL (≈ 67.5 µM). The MIC (Cryptococcus neoformans) was 12.5 µg/mL (≈ 67.5 µM), the Activity (Escherichia coli) was “inactive” and the Activity (Pseudomonas aeruginosa) was “inactive”. The Activity (Aspergillus niger) was “inactive” and the MIC [5] was 3.12 µg/mL (≈ 16.8 µM).
